What follows are compounds tested on HCV 1b-377-neo replicon cells (assay: HCV Replicon assay, HCV 1b genotype). Conditions: Hepatitis C virus, class symbol, read-out: EC50 range against HCV 1b.
Type: cell-based
Description: An HCV Replicon assay was utilized in the present disclosure, and was prepared, conducted and validated as described in commonly owned PCT/US2006/022197 and in O'Boyle et. al. Antimicrob Agents Chemother. 2005 April; 49(4): 1346-53.
HCV 1b-377-neo replicon cells were used to test the currently described compound series as well as cells resistant to compound A containing a Y2065H mutation in NS5A (described in application PCT/US2006/022197). The compounds tested were determined to have more than 10-fold less inhibitory activity on cells containing the mutation than wild-type cells indicating a related mechanism of action between the two compound series. Thus, the compounds of the present disclosure can be effective to inhibit the function of the HCV NS5A protein and are understood to be as effective in combinations as previously described in application PCT/US2006/022197 and commonly owned WO/04014852. Further, the compounds of the present disclosure can be effective against the HCV 1b genotype. It should also be understood that the compounds of the present disclosure can inhibit multiple genotypes of HCV. […] In one embodiment compounds of the present disclosure are active against the 1a, 1b, 2a, 2b, 3a, 4a, and 5a genotypes.
In the case of CCN(CC)C(C(=O)N1CCC[C@H]1c1ncc(-c2ccc3c(c2)CN(C)Cc2cc(-c4cnc([C@@H]5CCCN5C(=O)C(c5ccccc5)N(CC)CC)[nH]4)ccc2-3)[nH]1)c1ccccc1 (stereo in doubt) [Example 7, (1S,1′S) -2,2′-((6-methyl-6,7-dihydro-5H-dibenzo[c,e]azepine-3,9-diyl)bis(1H-imidazole-4,2-diyl(2S)-2,1-pyrrolidinediyl)) bis(N,N-diethyl-2-oxo-1-phenylethanamine)], the EC50 is reported as 0.101 to 0.999 nM.
In the case of CCN(CC)C(C(=O)N1CCC[C@H]1c1ncc(-c2ccc3c(c2)COCc2cc(-c4cnc([C@@H]5CCCN5C(=O)C(c5ccccc5)N(CC)CC)[nH]4)ccc2-3)[nH]1)c1ccccc1 (stereo in doubt) [Example 12, (1S,1′S)-2,2′-(5,7-dihydrodibenzo[c,e]oxepine-3,9-diylbis(1H-imidazole-4,2-diyl(2S)-2,1-pyrrolidinediyl))bis(N,N-diethyl-2-oxo-1-phenylethanamine)], the EC50 is reported as 0.101 to 0.999 nM.
In the case of COC(=O)N[C@H](C(=O)N1CCC[C@H]1c1ncc(-c2ccc3c(c2)C(O)c2cc(-c4cnc([C@@H]5CCCN5C(=O)[C@@H](NC(=O)OC)C(C)C)[nH]4)ccc2-3)[nH]1)C(C)C [Example 2, methyl ((1S)-1-(((2S)-2-(5-(9-hydroxy-7-(2-((2S)-1-((2S)-2-((methoxycarbonyl)amino)-3-methylbutanoyl)-2-pyrrolidinyl)-1H-imidazol-5-yl)-9H-fluoren-2-yl)-1H-imidazol-2-yl)-1-pyrrolidinyl)carbonyl)-2-methylpropyl)carbamate], the EC50 is reported as 0.101 to 0.999 nM.
COC(=O)N[C@H](C(=O)N1CCC[C@H]1c1ncc(-c2ccc3c(c2)C(N(C)C)c2cc(-c4cnc([C@@H]5CCCN5C(=O)[C@@H](NC(=O)OC)C(C)C)[nH]4)ccc2-3)[nH]1)C(C)C [Example 3, methyl ((1S)-1-(((2S)-2-(5-(9-(dimethylamino)-7-(2-((2S)-1-((2S)-2-((methoxycarbonyl)amino)-3-methylbutanoyl)-2-pyrrolidinyl)-1H-imidazol-5-yl)-9H-fluoren-2-yl)-1H-imidazol-2-yl)-1-pyrrolidinyl)carbonyl)-2-methylpropyl)carbamate] was tested, and the EC50 was 0.101 to 0.999 nM.
COC(=O)N[C@H](C(=O)N1CCC[C@H]1c1ncc(-c2ccc3c(c2)Cc2cc(-c4cnc([C@@H]5CCCN5C(=O)[C@@H](NC(=O)OC)C(C)C)[nH]4)ccc2-3)[nH]1)C(C)C [Example 4, methyl ((1S)-1-(((2S)-2-(5-(7-(2-((2S)-1-((2S)-2-((methoxycarbonyl)amino)-3-methylbutanoyl)-2-pyrrolidinyl)-1H-imidazol-5-yl)-9H-fluoren-2-yl)-1H-imidazol-2-yl)-1-pyrrolidinyl)carbonyl)-2-methylpropyl)carbamate] gave an EC50 of 0.001 to 0.1 nM.
COC(=O)N[C@H](C(=O)N1CCC[C@H]1c1ncc(-c2ccc3c(c2)Cc2cc(-c4cnc([C@@H]5CCCN5C(=O)[C@@H](NC(=O)OC)[C@@H](C)OC)[nH]4)ccc2-3)[nH]1)[C@@H](C)OC [Example 5, methyl ((1S,2R)-2-methoxy-1-(((2S)-2-(5-(7-(2-((2S)-1-(N-(methoxycarbonyl)-O-methyl-L-threonyl)-2-pyrrolidinyl)-1H-imidazol-5-yl)-9H-fluoren-2-yl)-1H-imidazol-2-yl)-1-pyrrolidinyl)carbonyl)propyl)carbamate] gave an EC50 of 0.001 to 0.1 nM.
Work on COC(=O)N[C@H](C(=O)N1CCC[C@H]1c1ncc(-c2ccc3c(c2)COCc2cc(-c4cnc([C@@H]5CCCN5C(=O)[C@@H](NC(=O)OC)C(C)C)[nH]4)ccc2-3)[nH]1)C(C)C [Example 8, methyl ((1S)-1-(((2S)-2-(5-(9-(2-((2S)-1-((2S)-2-((methoxycarbonyl)amino)-3-methylbutanoyl)-2-pyrrolidinyl)-1H-imidazol-4-yl)-5,7-dihydrodibenzo[c,e]oxepin-3-yl)-1H-imidazol-2-yl)-1-pyrrolidinyl)carbonyl)-2-methylpropyl)carbamate] yielded an EC50 of 0.001 to 0.1 nM.
Work on COC(=O)N[C@@H](C)C(=O)N1CCC[C@H]1c1ncc(-c2ccc3c(c2)COCc2cc(-c4cnc([C@@H]5CCCN5C(=O)[C@H](C)NC(=O)OC)[nH]4)ccc2-3)[nH]1 [Example 9, methyl ((1S)-2-((2S)-2-(4-(9-(2-((2S)-1-(N-(methoxycarbonyl)-L-alanyl)-2-pyrrolidinyl)-1H-imidazol-4-yl)-5,7-dihydrodibenzo[c,e]oxepin-3-yl)-1H-imidazol-2-yl)-1-pyrrolidinyl)-1-methyl-2-oxoethyl)carbamate] yielded an EC50 of 0.001 to 0.1 nM.
In the case of COC(=O)N[C@H](C(=O)N1CCC[C@H]1c1ncc(-c2ccc3c(c2)COCc2cc(-c4cnc([C@@H]5CCCN5C(=O)[C@@H](NC(=O)OC)C5CCOCC5)[nH]4)ccc2-3)[nH]1)C1CCOCC1 [Example 10, dimethyl (5,7-dihydrodibenzo[c,e]oxepine-3,9-diylbis(1H-imidazole-4,2-diyl(2S)-2,1-pyrrolidinediyl((1S)-2-oxo-1-(tetrahydro-2H-pyran-4-yl)-2,1-ethanediyl)))biscarbamate], the EC50 is reported as 0.101 to 0.999 nM.
In the case of COC(=O)NC(C(=O)N1CCC[C@H]1c1ncc(-c2ccc3c(c2)COCc2cc(-c4cnc([C@@H]5CCCN5C(=O)C(NC(=O)OC)C5CCOCC5)[nH]4)ccc2-3)[nH]1)C1CCOCC1 (stereo partly drawn) [Example 10A, dimethyl (5,7-dihydrodibenzo[c,e]oxepine-3,9-diylbis(1H-imidazole-4,2-diyl(2S)-2,1-pyrrolidinediyl(2-oxo-1-(tetrahydro-2H-pyran-4-yl)-2,1-ethanediyl)))biscarbamate], the EC50 is reported as 1 to 99 nM.

Same assay, conditions: Hepatitis C virus, value in nM, read-out: EC50 value against HCV 1b
With COC(=O)N[C@H](C(=O)N1CCC[C@H]1c1ncc(-c2ccc3c(c2)CN(C)Cc2cc(-c4cnc([C@@H]5CCCN5C(=O)[C@@H](NC(=O)OC)C(C)C)[nH]4)ccc2-3)[nH]1)C(C)C [Example 6, methyl ((1S)-1-(((2S)-2-(5-(9-(2-((2S)-1-((2S)-2-((methoxycarbonyl)amino)-3-methylbutanoyl)-2-pyrrolidinyl)-1H-imidazol-5-yl)-6-methyl-6,7-dihydro-5H-dibenzo[c,e]azepin-3-yl)-1H-imidazol-2-yl)-1-pyrrolidinyl)carbonyl)-2-methylpropyl) carbamate] the EC50 was 2 nM.

Same assay, conditions: Hepatitis C virus, value in pM, read-out: EC50 value against HCV 1b
With COC(=O)N[C@H](C(=O)N1CCC[C@H]1c1ncc(-c2ccc3c(c2)C(=O)c2cc(-c4cnc([C@@H]5CCCN5C(=O)[C@@H](NC(=O)OC)C(C)C)[nH]4)ccc2-3)[nH]1)C(C)C [Example 1, methyl ((1S)-1-(((2S)-2-(5-(7-(2-((2S)-1-((2S)-2-((methoxycarbonyl)amino)-3-methylbutanoyl)-2-pyrrolidinyl)-1H-imidazol-5-yl)-9-oxo-9H-fluoren-2-yl)-1H-imidazol-2-yl)-1-pyrrolidinyl)carbonyl)-2-methylpropyl)carbamate] the EC50 was 0.009 nM.
For COC(=O)N[C@H](C(=O)N1CCC[C@H]1c1ncc(-c2ccc3c(c2)COCc2cc(-c4cnc([C@@H]5CCCN5C(=O)[C@@H](NC(=O)OC)[C@@H](C)OC)[nH]4)ccc2-3)[nH]1)[C@@H](C)OC [Example 11, methyl ((1S,2R)-2-methoxy-1-(((2S)-2-(4-(9-(2-((2S)-1-(N-(methoxycarbonyl)-O-methyl-L-threonyl)-2-pyrrolidinyl)-1H-imidazol-4-yl)-5,7-dihydrodibenzo[c,e]oxepin-3-yl)-1H-imidazol-2-yl)-1-pyrrolidinyl)carbonyl)propyl)carbamate], the EC50 was 0.146 nM.

From patent US7704992B2, “Hepatitis C virus inhibitors” (Bristol-Myers Squibb Company, priority 2008, dated 2010)
